For one assay, the target named is T1, PI3K β (Homo sapiens, UniProt P42338).
T1 construct: Full length p110 subunits of PI3K α, β and δ, N-terminally labeled with polyHis tag; polyHis (N); made in house; host or cells: Sf9 insect cells (baculovirus)
The assay is described as follows: In vitro PI3 kinase enzyme assay (beta), ATP loss, bioluminescence.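 Also: purified p110β/p85 heterodimer with PtdIns(4,5)P2 as acceptor, incubated at room temperature, leftover ATP read by luminescence, inhibition scaled to compound-free wells with and without enzyme.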 The following applies: read-out: PI3Kβ ATP loss IC50. Type of assay: biochemical.

Assay [1] concerns phosphorylation of Serine 473 in Akt, HCT 116 human colon carcinoma cells. The assay is described as follows: Cell-based phospho-AKT Ser473 assay (MSD sandwich immunoassay, IGF-1 stimulated). The conditions noted are these: Homo sapiens, HCT-116, HCT 116 cells; read-out: HCT 116 pAKT IC50. The method, then: This assay determines the ability of test compounds to inhibit the phosphorylation of […] in Akt using a MSD based sandwich immunoassay (Meso Scale Detection, catalogue # N411CAB-1). […] Prior to the assay cells were detached from the culture flask with trypsin, and re-suspended in complete media to give a final concentration of 1.6×10^5 cells per ml. Aliquots (100 μl) of the HCT116 cell suspension were seeded into each well of a 96 well tissue culture plate (Corning Incorporated COSTAR, catalogue#3595) to give a final density of 16,000 cells per well. Cells were then incubated overnight at 37° C. The following day the cells were treated with serially diluted test compounds and incubated for 2 hours at 37° C. […] As a maximum response control, wells contained 0.5% DMSO in place of test compound. The plates were mixed at 700 rpm for 2 min to ensure even distribution of the test compound and incubated for 2 hours at 37° C. Cells were then stimulated with insulin-like growth factor 1 (Sigma, product #13769) at final concentration of 100 ng/ml for 15 minutes at 37° C. The media was then removed and the cells treated with 80 μl cell-lysis buffer (MSD) containing a cocktail of protease and phosphatase inhibitors for one hour at 4° C. […] The detection antibody was removed and plates were then washed four times with 200 μl per well of Tris wash buffer. An aliquot of 150 μl of diluted MSD read buffer was then applied to each well, and the electrochemiluminescent signal was measured using a MSD SECTORTM plate reader. This instrument measures the intensity of emitted light to determine a quantitative measure of phosphorylated Akt in each well. The dose-response data obtained with each compound were analyzed and the IC50 inhibition of Akt phosphorylation at Ser473 calculated.

In a further assay the target is T2, PI3K α (Homo sapiens, UniProt P42336).
T2 construct: Full length p110 subunits of PI3K α, β and δ, N-terminally labeled with polyHis tag; polyHis (N); made in house; host or cells: Sf9 insect cells (baculovirus)
T2 sequence (P42336 whole entry, species assumed): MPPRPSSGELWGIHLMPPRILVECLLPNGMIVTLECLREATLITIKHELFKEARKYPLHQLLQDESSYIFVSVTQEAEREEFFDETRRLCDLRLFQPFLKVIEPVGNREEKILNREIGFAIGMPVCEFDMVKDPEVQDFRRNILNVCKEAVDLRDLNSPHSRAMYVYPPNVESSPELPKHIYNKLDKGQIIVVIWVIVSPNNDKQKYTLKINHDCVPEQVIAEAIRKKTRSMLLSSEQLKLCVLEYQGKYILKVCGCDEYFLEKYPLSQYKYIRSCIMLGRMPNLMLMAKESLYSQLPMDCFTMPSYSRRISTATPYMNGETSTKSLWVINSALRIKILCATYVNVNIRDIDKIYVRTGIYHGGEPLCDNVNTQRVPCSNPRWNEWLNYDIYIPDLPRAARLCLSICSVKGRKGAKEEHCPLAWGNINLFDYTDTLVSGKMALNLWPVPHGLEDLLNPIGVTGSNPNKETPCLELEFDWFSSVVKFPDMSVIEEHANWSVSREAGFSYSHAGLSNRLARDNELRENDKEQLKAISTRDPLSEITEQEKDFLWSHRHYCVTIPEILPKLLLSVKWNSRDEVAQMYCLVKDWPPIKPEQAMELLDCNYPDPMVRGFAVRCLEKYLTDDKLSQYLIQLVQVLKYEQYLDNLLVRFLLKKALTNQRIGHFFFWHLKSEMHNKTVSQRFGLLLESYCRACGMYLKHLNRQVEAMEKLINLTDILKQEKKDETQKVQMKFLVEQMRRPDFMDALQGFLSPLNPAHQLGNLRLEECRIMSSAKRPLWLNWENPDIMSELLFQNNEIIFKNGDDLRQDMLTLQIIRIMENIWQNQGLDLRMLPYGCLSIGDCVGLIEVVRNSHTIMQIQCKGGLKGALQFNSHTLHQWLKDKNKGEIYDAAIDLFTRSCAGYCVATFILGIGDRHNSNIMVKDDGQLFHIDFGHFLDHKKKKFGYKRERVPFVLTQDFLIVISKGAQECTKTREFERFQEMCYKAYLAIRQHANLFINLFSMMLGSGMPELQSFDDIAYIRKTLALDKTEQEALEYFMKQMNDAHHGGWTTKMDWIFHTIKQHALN
T2 sequence (P27986 whole entry partner, species assumed): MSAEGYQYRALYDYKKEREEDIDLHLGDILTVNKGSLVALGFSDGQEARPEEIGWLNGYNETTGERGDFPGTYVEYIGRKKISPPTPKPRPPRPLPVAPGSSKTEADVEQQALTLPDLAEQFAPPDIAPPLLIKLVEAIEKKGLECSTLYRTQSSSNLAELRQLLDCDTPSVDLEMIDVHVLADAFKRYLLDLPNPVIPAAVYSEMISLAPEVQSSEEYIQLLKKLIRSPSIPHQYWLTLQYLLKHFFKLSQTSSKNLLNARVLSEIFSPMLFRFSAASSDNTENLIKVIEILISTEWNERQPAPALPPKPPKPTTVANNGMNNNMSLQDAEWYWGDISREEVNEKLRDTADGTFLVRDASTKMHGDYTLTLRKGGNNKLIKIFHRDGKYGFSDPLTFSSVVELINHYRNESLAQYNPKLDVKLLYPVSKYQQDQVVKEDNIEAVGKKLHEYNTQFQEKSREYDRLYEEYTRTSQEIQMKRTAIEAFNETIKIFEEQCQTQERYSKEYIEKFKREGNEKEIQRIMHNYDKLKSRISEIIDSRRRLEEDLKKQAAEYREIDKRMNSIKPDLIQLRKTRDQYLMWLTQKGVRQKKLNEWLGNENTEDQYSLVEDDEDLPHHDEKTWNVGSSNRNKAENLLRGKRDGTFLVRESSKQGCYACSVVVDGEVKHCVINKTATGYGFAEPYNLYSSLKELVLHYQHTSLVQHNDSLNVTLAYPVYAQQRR
Description: In vitro PI3 kinase enzyme assay (alpha), ATP loss, bioluminescence.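 Also: purified p110α/p85 heterodimer acting on PtdIns(4,5)P2 at room temperature, remaining ATP read by luminescence, inhibition scaled between compound-free wells with and without enzyme.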 The conditions noted are these: read-out: PI3Kα ATP loss IC50. Type of assay: biochemical.

Bounds are passed on as bounds.

T1 sequence (P42338 whole entry): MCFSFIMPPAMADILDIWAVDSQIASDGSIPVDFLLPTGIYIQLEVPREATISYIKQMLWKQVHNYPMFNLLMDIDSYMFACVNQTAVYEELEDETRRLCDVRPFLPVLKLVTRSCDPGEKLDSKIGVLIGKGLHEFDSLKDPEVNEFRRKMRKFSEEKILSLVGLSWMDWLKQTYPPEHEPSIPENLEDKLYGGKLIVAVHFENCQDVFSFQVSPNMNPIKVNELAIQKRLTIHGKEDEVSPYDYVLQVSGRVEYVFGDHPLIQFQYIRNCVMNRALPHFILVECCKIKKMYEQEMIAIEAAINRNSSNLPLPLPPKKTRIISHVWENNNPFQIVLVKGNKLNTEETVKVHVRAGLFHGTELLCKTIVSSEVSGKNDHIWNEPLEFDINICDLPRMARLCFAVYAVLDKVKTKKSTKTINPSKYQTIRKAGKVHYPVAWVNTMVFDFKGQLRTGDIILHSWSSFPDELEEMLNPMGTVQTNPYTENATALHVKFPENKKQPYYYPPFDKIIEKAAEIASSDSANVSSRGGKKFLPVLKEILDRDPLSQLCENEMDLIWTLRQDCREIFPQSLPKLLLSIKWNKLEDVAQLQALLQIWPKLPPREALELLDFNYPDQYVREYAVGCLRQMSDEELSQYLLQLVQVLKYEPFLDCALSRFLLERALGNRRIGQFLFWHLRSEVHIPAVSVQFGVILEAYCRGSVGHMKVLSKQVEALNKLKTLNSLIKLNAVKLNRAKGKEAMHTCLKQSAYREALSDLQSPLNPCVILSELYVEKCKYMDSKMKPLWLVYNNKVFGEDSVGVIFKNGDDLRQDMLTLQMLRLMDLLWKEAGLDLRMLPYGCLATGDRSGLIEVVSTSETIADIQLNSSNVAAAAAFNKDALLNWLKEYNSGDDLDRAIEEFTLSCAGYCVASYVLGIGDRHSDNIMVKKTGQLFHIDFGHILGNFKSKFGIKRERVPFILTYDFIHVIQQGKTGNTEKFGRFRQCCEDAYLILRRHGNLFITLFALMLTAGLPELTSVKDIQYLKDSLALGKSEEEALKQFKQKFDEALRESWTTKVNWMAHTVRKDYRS
T1 sequence (P27986 whole entry partner): as the sequence (P27986 whole entry partner, species assumed) above
Description for PI3K β: Full length p110 subunits of PI3K α, β and δ, N-terminally labeled with polyHis tag, were co-expressed with p85 in baculovirus expression vectors in sf9 insect cells. P110/p85 heterodimers were purified by sequential Ni-NTA, Q-HP, and Superdex-100 chromatography. Purified α, β and δ isozymes were stored at −20° C. in 20 mM Tris, pH 8, 0.2M NaCl, 50% glycerol, 5 mM DTT, 2 mM Na cholate.
PI3K enzyme assays (alpha, beta, delta and gamma) were performed in 25 mL with the above final concentrations of components in white polypropylene plates (Costar catalogue #3355). Phosphatidyl inositol phosphoacceptor, PtdIns(4,5)P2 (eg. P4508) was obtained from Echelon Biosciences. The ATPase activity of the alpha and gamma isozymes was not greatly stimulated by PtdIns(4,5)P2 under these conditions and was therefore omitted from the assay of these isozymes. Test compounds were dissolved in DMSO and diluted with three-fold serial dilutions. The compound in DMSO (1 μL) was added per test well, and the inhibition relative to reactions containing no compound, with and without enzyme was determined. After assay incubation at RT, the reaction was stopped and residual ATP determined by addition of an equal volume of a commercial ATP bioluminescence kit (Perkin Elmer EasyLite) according to the manufacturer's instructions, and detected using an Analyst GT luminometer.

A word on the IC50: it is the concentration needed to halve the response being measured. As to `CC(=O)Nc1nc2ccc(-c3ccnc(NS(=O)(=O)c4ccccc4F)n3)cc2s1` [Example 81, N-(6-(2-(((2-fluorophenyl)sulfonyl)amino)-4-pyrimidinyl)-1,3-benzothiazol-2-yl)acetamide], the IC50 at PI3K β stood at 0.103 µM; in assay [1], 4.95 µM.

In the case of `CC(=O)Nc1nc2ccc(-c3cnc(Cl)c(NS(=O)(=O)c4ccc(F)cc4)c3)cc2s1` [Example 162, N-(6-(6-Chloro-5-(4-fluorophenylsulfonamido)pyridin-3-yl)benzo[d]thiazol-2-yl)acetamide], the IC50 in assay [1] was determined as 0.0104 µM.

In the case of `CC(=O)Nc1nc2ccc(-c3ccc(Cl)nc3)cc2s1` [Example 297, N-(6-(6-chloropyridin-3-yl)benzo[d]thiazol-2-yl)acetamide], the IC50 in assay [1] is 1.19 µM.

For `COCC(=O)NCCOc1cncc(-c2ccc3nc(NC(C)=O)sc3c2)c1` [Example 298, N-(2-(5-(2-(N-actyl)aminobenzo[d]thiazol-6-yl)pyridin-3-yloxy)ethyl)-2-methoxyacetamide], the IC50 in assay [1] came to 1.83 µM.

In the case of `CC(=O)Nc1nc2ccc(-c3cncc(O)c3)cc2s1` [Example 296, N-(6-(5-hydroxypyridin-3-yl)benzo[d]thiazol-2-yl)acetamide], the IC50 in assay [1] came to 0.418 µM.

With `CC(=O)Nc1nc2ccc(-c3cncc(NC(C)(C)C)n3)cc2s1` [Example 227, N-(6-(6-(tert-butylamino)pyrazin-2-yl)benzo[d]thiazol-2-yl)acetamide], the IC50 in assay [1] is 0.362 µM.

With `CC(=O)Nc1nc2ccc(-c3cncc(N4CC5CCC(CC5)C4)n3)cc2s1` [Example 300, N-(6-(6-(3-aza-bicyclo[3.2.2]nonan-3-yl)pyrazin-2-yl)benzo[d]thiazol-2-yl)acetamide], in assay [1], the IC50 came to 8.94 µM.

Consider `CC(=O)Nc1nc2ccc(-c3cncc(OC[C@H]4CCC(=O)N4)c3)cc2s1` [Example 294, N-(6-(5-(((R)-5-oxopyrrolidin-2-yl)methoxy)pyridin-3-yl)benzo[d]thiazol-2-yl)acetamide], for which the IC50 in assay [1] is more than 5 µM.

In the case of `COc1ccc(S(=O)(=O)c2ncc(-c3ccc4nc(NC(C)=O)sc4c3)s2)cc1` [Example 61, N-(6-(2-(4-methoxyphenylsulfonyl)thiazol-5-yl)benzo[d]thiazol-2-yl)acetamide], the results for the IC50 at PI3K β and on PI3K α were 31 µM and 38.8 µM, respectively.

As for `CC(=O)Nc1nc2ccc(-c3ccnc(CCCc4ccccc4)n3)cc2s1` [Example 14, N-(6-(2-(3-phenylpropyl)-4-pyrimidinyl)-1,3-benzothiazol-2-yl)acetamide], the IC50 at PI3K β was 10.7 µM; on PI3K α it was 2.75 µM.

As to `COc1ccc(S(=O)(=O)Nc2cc(-c3ccc4nc(NC(C)C)sc4c3)cnc2Cl)cc1` [Example 305, N-(2-chloro-5-(2-((1-methylethyl)amino)-1,3-benzothiazol-6-yl)-3-pyridinyl)-4-methoxybenzenesulfonamide], the IC50 at PI3K β amounted to 0.224 µM; at PI3K α, 0.0589 µM.

Turning to `CC(=O)Nc1nc2ccc(-c3cccc(S(=O)(=O)c4ccccc4)n3)cc2s1` [Example 65, N-(6-(6-(phenylsulfonyl)pyridin-2-yl)benzo[d]thiazol-2-yl)acetamide], the concentration for half-maximal inhibition (IC50) at PI3K β was more than 40 µM; at PI3K α, 0.221 µM.

In the case of `COc1ccc(S(=O)(=O)Nc2cc(-c3ccc4nc(NCC5CCCCC5)sc4c3)cnc2Cl)cc1` [Example 306, N-(2-chloro-5-(2-((cyclohexylmethyl)amino)-1,3-benzothiazol-6-yl)-3-pyridinyl)-4-methoxybenzenesulfonamide], the figures for the IC50 on PI3K β and at PI3K α were 0.411 µM and 0.104 µM, respectively.

Consider `COc1ccccc1S(=O)(=O)c1cccc(-c2ccc3nc(NC(C)=O)sc3c2)n1` [Example 70, N-(6-(6-((2-methoxyphenyl)sulfonyl)-2-pyridinyl)-1,3-benzothiazol-2-yl)acetamide], for which the IC50 came to 1.54 µM on PI3K β and 0.285 µM at PI3K α.

As for `CC(=O)Nc1nc2ccc(-c3cccc4[nH]ncc34)cc2s1` [Example 99, N-(6-(1H-Indazol-4-yl)benzo[d]thiazol-2-yl)acetamide], the IC50 at PI3K β is more than 40 µM; at PI3K α, 0.288 µM.

Turning to `O=C(CN1CCOCC1)Nc1nc2ccc(-c3ccnc(OCc4ccccc4)n3)cc2s1` [Example 54, N-(6-(2-(benzyloxy)-4-pyrimidinyl)-1,3-benzothiazol-2-yl)-2-(4-morpholinyl)acetamide], the IC50 was more than 40 µM at PI3K β and 7.33 µM at PI3K α.

With `CC(=O)Nc1nc2ccc(-c3ccnc(N(C)S(=O)(=O)c4ccc5ncccc5c4)n3)cc2s1` [Example 204, N-(6-(2-(N-methylquinoline-6-sulfonamido)pyrimidin-4-yl)benzo[d]thiazol-2-yl)acetamide], the IC50 on PI3K β was found to be 0.404 µM; on PI3K α it was 0.354 µM.

`CC(=O)Nc1nc2ccc(-c3cccc4sc(=O)[nH]c34)cc2s1` [Example 98, N-(6-(2-oxo-2,3-Dihydrobenzo[d]thiazol-4-yl)benzo[d]thiazol-2-yl)acetamide]: the IC50 at PI3K β is 10 µM; on PI3K α it was 3.14 µM.

In the case of `Nc1nc2ccc(-c3nnc(NS(=O)(=O)c4ccc(F)cc4)o3)cc2s1` [Example 168, N-(5-(2-aminobenzo[d]thiazol-6-yl)-1,3,4-oxadiazol-2-yl)-4-fluorobenzenesulfonamide], the IC50 is 0.816 µM at PI3K β and 0.665 µM on PI3K α.

For the compound `CC(=O)Nc1nc2ccc(-c3ccnc(OCCCN4CCOC4=O)n3)cc2s1` [Example 32, N-(6-(2-(3-(2-oxo-1,3-oxazolidin-3-yl)propoxy)-4-pyrimidinyl)-1,3-benzothiazol-2-yl)acetamide], the IC50 at PI3K β was more than 40 µM; on PI3K α, 0.601 µM.

As for `CC(=O)Nc1nc2ccc(-c3ccnc(OC4CCN(C)CC4)n3)cc2s1` [Example 31, N-(6-(2-((1-methyl-4-piperidinyl)oxy)-4-pyrimidinyl)-1,3-benzothiazol-2-yl)acetamide], the figures for the IC50 on PI3K β and at PI3K α were more than 40 µM and 2.38 µM, respectively.

In the case of `CC(=O)Nc1nc2ccc(-c3csc(S(=O)(=O)c4ccccc4F)n3)cc2s1` [Example 63, N-(6-(2-(2-fluorophenylsulfonyl)thiazol-4-yl)benzo[d]thiazol-2-yl)acetamide], the IC50 on PI3K β amounted to 4.69 µM; at PI3K α it was 0.556 µM.

As to `CC(=O)Nc1nc2ccc(-c3ccc(OC(F)F)nc3)cc2s1` [Example 249, N-(6-(6-(difluoromethoxy)pyridin-3-yl)benzo[d]thiazol-2-yl)acetamide], the IC50 was determined as 8.11 µM on PI3K β and 0.717 µM at PI3K α.

`CC(C)(C)Nc1cc(-c2ccc3nc(N)sc3c2)cnc1Cl` [Example 315, 6-(5-(tert-butylamino)-6-chloro-3-pyridinyl)-1,3-benzothiazol-2-amine]: the values for the IC50 at PI3K β and on PI3K α were 2.94 µM and 0.965 µM, respectively.

For `CC(=O)Nc1nc2ccc(-c3csc(S(=O)(=O)c4ccc(F)cc4)n3)cc2s1` [Example 97, N-(6-(2-(4-Fluorophenylsulfonyl)thiazol-4-yl)benzo[d]thiazol-2-yl)acetamide], the IC50 at PI3K β is 28 µM; on PI3K α, 17.3 µM.

As to `CC(=O)Nc1nc2ccc(-c3cccc(S(=O)(=O)c4cccc(F)c4)n3)cc2s1` [Example 67, N-(6-(6-((3-fluorophenyl)sulfonyl)-2-pyridinyl)-1,3-benzothiazol-2-yl)acetamide], the IC50 at PI3K β worked out at 3.35 µM; at PI3K α it was 0.3 µM.

For the compound `CC(=O)Nc1nc2ccc(-c3ccnc(N4CCCC4c4ccccc4C)n3)cc2s1` (racemic) [Example 262, N-(6-(2-(2-o-tolylpyrrolidin-1-yl)pyrimidin-4-yl)benzo[d]thiazol-2-yl)acetamide], the IC50 at PI3K β came to 0.777 µM; at PI3K α, 1.56 µM.

`CC(=O)Nc1nc2ccc(-c3cnc(Cl)c(N(C(=O)OC(C)(C)C)C(=O)OC(C)(C)C)c3)cc2s1` [Example 277, Bis(tert-butyl) 5-(2-acetamidobenzo[d]thiazol-6-yl)-2-chloropyridin-3-ylcarbamate]: the figures for the IC50 at PI3K β and at PI3K α were 4.8 µM and 2.19 µM, respectively.

In the case of `CCOc1ccc(-c2ccc3nc(NC(C)=O)sc3c2)cn1` [Example 243, N-(6-(6-ethoxypyridin-3-yl)benzo[d]thiazol-2-yl)acetamide], the IC50 is more than 40 µM on PI3K β and 0.156 µM at PI3K α.

On to `CC(=O)Nc1nc2ccc(-c3ccnc(Sc4ccc(C)cc4C)n3)cc2s1` [Example 122, N-(6-(2-((2,4-dimethylphenyl)sulfanyl)-4-pyrimidinyl)-1,3-benzothiazol-2-yl)acetamide], for which the values for the IC50 on PI3K β and on PI3K α were 0.261 µM and 0.0196 µM, respectively.

`CC(=O)Nc1nc2ccc(-c3csc(S(=O)(=O)c4ccccc4)n3)cc2s1` [Example 64, N-(6-(2-(phenylsulfonyl)thiazol-4-yl)benzo[d]thiazol-2-yl)acetamide]: the IC50 on PI3K β was more than 40 µM; on PI3K α, 0.846 µM.

(Values after patent US7928140B2, “Benzothiazole PI3 kinase modulators for cancer treatment” (Amgen Inc., priority 2007, dated 2011).)
